PMC10809502, “Application of a new MDCKII-MDR1 cell model to measure the extent of drug distribution in vitro at equilibrium for prediction of in vivo unbound brain-to-plasma drug distribution” (Fluids and Barriers of the CNS, 2024)
Like-named read-outs stand apart in the source and are kept apart here.

Tests used:
[1] = cited from earlier work
[2] = molecular target: T1, Bovine Serum Albumin (BSA) (Bos taurus, UniProt P02769); test: Fraction unbound in 35 μM BSA, equilibrium dialysis; conditions: for fraction unbound at 5 h, 1 μM: bovine; for Predicted fu (%) BSA 35 μM (D = 20): calculated with Eq. 2 from fu measured in 100% matrices (ref 20), dilution factor 20
T1 sequence (P02769 25-607): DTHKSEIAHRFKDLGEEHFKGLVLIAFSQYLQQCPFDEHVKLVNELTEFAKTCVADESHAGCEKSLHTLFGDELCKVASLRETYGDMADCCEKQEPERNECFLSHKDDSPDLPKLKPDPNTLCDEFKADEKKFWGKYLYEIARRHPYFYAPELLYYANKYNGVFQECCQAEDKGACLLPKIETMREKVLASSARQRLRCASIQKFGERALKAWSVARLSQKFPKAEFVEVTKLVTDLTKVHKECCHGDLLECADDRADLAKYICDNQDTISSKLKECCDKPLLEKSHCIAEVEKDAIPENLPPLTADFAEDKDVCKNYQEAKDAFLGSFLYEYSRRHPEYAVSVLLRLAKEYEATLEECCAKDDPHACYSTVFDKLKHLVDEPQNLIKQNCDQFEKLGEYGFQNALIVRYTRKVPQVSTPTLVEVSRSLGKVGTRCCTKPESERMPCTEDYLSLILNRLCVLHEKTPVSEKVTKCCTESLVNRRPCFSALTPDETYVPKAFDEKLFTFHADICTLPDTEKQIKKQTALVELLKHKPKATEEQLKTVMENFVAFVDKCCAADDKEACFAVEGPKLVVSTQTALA

P-gp (human MDR1) [3] = test: in vitro; conditions: dog
P-gp (human MDR1) [4] = test: Equilibrium distribution study (in vitro Kp,brain / Kp,uu,brain) across MDCKII-MDR1 cells, BSA apical, brain homogenate basolateral, Uni-L and Bi-L; conditions: dog; for Kp at 29 h, 1 μM: brain homogenate/BSA ratio
[5] = Fraction unbound in 20-fold diluted brain homogenate, equilibrium dialysis; conditions: for fraction unbound at 5 h, 1 μM: Göttingen, minipig, pH 7.4; for Predicted fu (%) Brain (D = 20): calculated with Eq. 2 from fu measured in 100% matrices (ref 20), dilution factor 20
[6] = molecular target: T1, Bovine Serum Albumin (BSA); test: Fraction unbound in 700 μM BSA in phosphate buffer; type: in vitro ADME; parameters: BSA (purity > 98%) was obtained from Beijing SeaskyBio Technology Co. Ltd; purchased Beijing SeaskyBio Technology Co. Ltd. BSAS (Lot 541); conditions: read-out: fu, 700 μM BSA
MDCKII-MDR1 cell line = tested on: MDCKII-MDR1 cell line; parameters: method as in PMID 34756975, PMID 15236458; conditions: cited from earlier work
[7] = molecular target: T1, Bovine Serum Albumin (BSA); test: in vitro; conditions: isolated protein
[8] = molecular target: T1, Bovine Serum Albumin (BSA); conditions: isolated protein
[9] = brain homogenate
in vitro = conditions: Göttingen, minipig, brain homogenate, pH 7.4
P-gp (human MDR1) [10] = test: in vitro; conditions: dog; remark: listed apart in the source
[11] = MDCK-MDR1, pH 7.5, in vitro determined Kp,brain Bi-L, Bi-L (compound loaded both sides), 29 h
[12] = MDCK-MDR1, pH 7.5, in vitro determined Kp,brain Uni-L, Uni-L (compound loaded apically in BSA), 29 h
[13] = pH 7.5, Recovery Bi-L, mass balance Eq. 7, Bi-L, 29 h, % printed
[14] = pH 7.5, Recovery Uni-L, mass balance Eq. 6, Uni-L, 29 h, % printed
[15] = 20-fold diluted brain homogenate
[16] = MDCK-MDR1, pH 7.4, with an inhibitor present (name and concentration not stated)

SMILES	Kp,uu,brain in vivo ([1]; Göttingen minipig)	fraction unbound at 5 h, 1 μM ([2]; 35 μM BSA)	Predicted fu (%) BSA 35 μM (D = 20) [2]	Papp B→A at 60 min, 0.5 μM (P-gp (human MDR1) [3]; MDCK-MDR1, pH 7.4)	efflux ratio at 60 min, 0.5 μM (P-gp (human MDR1) [3]; MDCK-MDR1, pH 7.4)	Kp at 29 h, 1 μM (P-gp (human MDR1) [4]; [11])	Kp at 29 h, 1 μM (P-gp (human MDR1) [4]; [12])	recovery at 29 h, 1 μM (P-gp (human MDR1) [4]; [13])	recovery at 29 h, 1 μM (P-gp (human MDR1) [4]; [14])	fraction unbound at 5 h, 1 μM [5, 15]	Predicted fu (%) Brain (D = 20) [5]	other results
CN(C)CCCC1(c2ccc(F)cc2)OCc2cc(C#N)ccc21 (stereo not drawn) [Citalopram, citalopram]	0.90	0.973 ± 0.027	96.0%	7.7 ± 0.3 ×10⁻⁶ cm/s	1.7	1.5	1.5	67%	73%	0.513 ± 0.066	47.9%	
O=C1CC2(CCCC2)CC(=O)N1CCCCN1CCN(c2ncccn2)CC1 [Buspirone, buspirone]				20 ± 3 ×10⁻⁶ cm/s				71%	76%			
CCN(CC)CCNC(=O)c1cc(Cl)c(N)cc1OC [Metoclopramide, metoclopramide]		> 1	98.8%	49 ± 3 ×10⁻⁶ cm/s	2	0.96	1	66%	66%	0.878 ± 0.038	90.7%	fraction unbound at 5 h, 1 μM [6]: 0.904
COc1ccccc1N1CCN(CCN(C(=O)C2CCCCC2)c2ccccn2)CC1 [Way-100635]	0.40		87.1%								71.8%	Determined fu (%) BSA 35 μM (D = 20) ([2]; 35 μM BSA, 1 μM, 5 h, 37 ℃, Eq. 1, mean ± SD N=3): 80.2 ± 0.9%; Determined fu (%) Brain (D = 20) ([5]; 20-fold diluted brain homogenate, 1 μM, 5 h, 37 ℃, Eq. 1, mean ± SD N=3): 74.8 ± 8.0%; Kp,uu,brain in Vitro Uni-L (Det. fu) (MDCKII-MDR1 cells): 1.09; Kp,uu,brain in Vitro Uni-L (Pre.fu) (MDCKII-MDR1 cells): 0.96; assay recovery, equilibrium distribution experiment (MDCKII-MDR1 cells): around 50%; in vitro Kp,uu,brain (MDCKII-MDR1 cells; dog, MDCK-MDR1): ~ 1
OC[C@@H](O)[C@@H](O)[C@H](O)[C@H](O)CO [mannitol]												mannitol flux (MDCKII-MDR1 cell line): 1–7 10^–7 cm/s
Cc1cc(=O)n(-c2ccccc2)n1C [Antipyrine, antipyrine]				48 ± 3 ×10⁻⁶ cm/s	1.2							Kp,uu,brain in vivo ([1]; minipig, in vivo): 0.80; fraction unbound at 5 h, 1 μM [7]: > 1; Predicted fu (%) BSA 35 μM (D = 20) [8]: 99.9%; Predicted fu (%) Brain (D = 20) [9]: > 100%; fraction unbound at 5 h, 1 μM (in vitro): 0.843 ± 0.042; Kp,uu,brain in Vitro Uni-L (Det. fu) (MDCKII-MDR1 cells; dog, 29 h, 1 μM, pH 7.5): 1.05; Kp,uu,brain in Vitro Uni-L (Pre.fu) (MDCKII-MDR1 cells; dog, 29 h, 1 μM, pH 7.5): 1.24; Kp at 29 h, 1 μM (P-gp (human MDR1) [10]; MDCK-MDR1, pH 7.5, in vitro determined Kp,brain Bi-L): 1.2; Kp at 29 h, 1 μM (P-gp (human MDR1) [10]; MDCK-MDR1, pH 7.5, in vitro determined Kp,brain Uni-L): 1.2; recovery at 29 h, 1 μM (P-gp (human MDR1) [10]; pH 7.5, Recovery Bi-L): 77%; recovery at 29 h, 1 μM (P-gp (human MDR1) [10]; pH 7.5, Recovery Uni-L): 77%
Clc1ccc2c(c1)N=C(N1CCNCC1)c1ccccc1N2 [N-desmethylclozapine]	0.71	0.892 ± 0.029	82.1%	4.4 ± 0.3 ×10⁻⁶ cm/s	2.1	4.2	4.2	53%	62%	0.131 ± 0.006	13.9%	classification of brain penetration in vivo ([1]; Göttingen minipig Kp,uu,brain): unrestricted (unrestricted brain penetration with Kp,uu,brain > 0.7); Papp A→B at 60 min, 0.5 μM (P-gp (human MDR1) [3]; [16]): 3.6 ×10⁻⁶ cm/s; Papp B→A at 60 min, 0.5 μM (P-gp (human MDR1) [3]; [16]): 2.9 ×10⁻⁶ cm/s; recovery at 29 h, 1 μM (P-gp (human MDR1) [4]; pH 7.5, assay recovery, equilibrium distribution experiment, setup (Uni-L/Bi-L) not given): ~50%
